Key:
[1] = Photophysical characterization (UV-Vis absorption, isomerization under blue light); format: physicochemical
Text: (§1) The Ziapin 2 molecule (FIG. 1a) in DMSO has a strong absorption peak centered at 470 nm (FIG. 1b) and a peak at 330nm, attributed respectively to the transitions n→Π* and Π→Π* of the E isomer. […] Azobenzene fluorescence is also an ideal tool for monitoring the switch behavior of photoreponsive materials, as well as the localization and photodynamics in living cells. The decrease of Ziapin 2 time-dependent fluorescence following exposure to blue light in DMSO solution (FIG. 1c) is related to the weakening of the photoluminescence of the E conformer due to the photoisomerization reaction. Time-dependent fluorescence measurements (FIG. 1d) indicate a clear “photo-switching” dynamics of azobenzene in living HEK293 cells, with estimated isomerization/relaxation degrees of 0.01 cm^2J^−1 and 0.0085s^−1. […] An analogous characterization was performed with the Ziapin 1 molecule (FIG. 1e,f).
The isomerization reaction for the compound NO2/1C6Py is not observed, since in this case the nitro-azobenzene having a push-pull configuration has a rapid thermal relaxation (>ns) which hinders the appearance of the absorption of the cis isomer in the investigated temporal regime (Bandara et al., Chem. Soc. Rev., 2012, 41, 1809-1825).

[2] = system: primary neurons; assay: Compound localization testing by confocal microscopy (Cell Mask, Vybrant markers); format: cell-based; settings: for coverage of the cell surface / fraction of compound located in plasma membranes and in lipid rafts: primary neurons, confocal microscopy
Text: FIG. 4: confocal microscopy images showing the localization of the Ziapin 2 molecule in the vicinity of the plasma membranes (a) and in the lipid rafts (b) of primary neurons.
FIG. 5: confocal microscopy images showing the localization of the Ziapin 1 molecule in the vicinity of the plasma membranes (a) and in the lipid rafts (b) of primary neurons.
Molecules tend to localize in cell membranes and change their conformation. […] The targeting of both molecules at the plasma membrane level was analyzed in cultures of primary neurons using specific markers for the cell membrane (Cell Mask, FIG. 4a, FIG. 5a, respectively) or for lipid rafts, membrane areas rich in cholesterol and ion channels (Vybrant, FIG. 4b, FIG. 5b, respectively).

[3] = system: primary neurons; assay: Electrophysiology (current-clamp) on primary neurons under light stimulation; format: cell-based
Description: FIG. 6: electrophysiology conducted on HEK293 cells (a, b), primary neurons in the absence (c, d) or in the presence of synaptic blockers (e, f) treated with Ziapin 2 and under illumination. (a) Representative average current-clamp traces recorded from HEK293 cells incubated with DMSO 0.25% (v/v) (Ctrl; black line) or 25 μM Ziapin 2 in DMSO (gray line) and photostimulated for 20 ms (top) or 200 ms (bottom) (wavelength 470 nm, light power density of 47 mW/mm^2, shaded areas in gray). (b) Average hyperpolarization and subsequent depolarization in HEK293 cells. (c, d) Representative current-clamp traces of passive (hyperpolarization/depolarization, left) and active (action potentials, right) responses recorded from neurons incubated in DMSO 0.25% (v/v) (Ctrl; black line) or with 5 μM Ziapin 2 in DMSO (gray line) in the absence (c) or presence (e) of synaptic blockers. The duration of light stimulation (20 and 200 ms, respectively) is indicated as a shaded area (wavelength 470 nm, light power density of 20 mW/mm^2). (d, f) Quantification of the hyperpolarization (left) and depolarization (right) peak in primary neurons exposed to DMSO or Ziapin 2 in the absence (d) or presence (f) of synaptic blockers and subjected to 20 or 200 ms of light stimulation.
FIG. 7: modulation of membrane capacitance and conductance in primary neurons following light stimulation. Representative traces of capacity (a) and conductance (b) recorded in current-clamp from primary neurons incubated with 0.25% (v/v) DMSO (Ctrl; black line) or 5 μM Ziapin 2 in DMSO (gray line) in the presence of synaptic and photostimulated blockers with 20 ms (left) or 200 ms (right) (wavelength 470 nm, light power density of 20 mW/mm^2, shaded areas). (c, d) Quantification of peak capacity (c) and conductance (d) variations evoked by light stimuli of 20 and 200 ms.
FIG. 8: effect of Ziapin 1 on passive and active membrane properties in primary hippocampal neurons. […] (a) Quantification of hyperpolarization (left) and depolarization (right) in response to light stimulation for 20/200 ms. […]

[4] = system: somatosensory cortex; assay: Cortical responses evoked by light in vivo (LFP recordings after stereotaxic injection); set-up: species or system mice
Description: FIG. 9: cortical responses evoked by light in vivo in the somatosensory cortex of mice exposed to Ziapin 2. (a) Schematic representation of the stereotaxic injection of Ziapin 2 (200 mM in 1 μl of 10% DMSO) in the somatosensory cortex (S1ShNc, 2 mm anterior to lambda, 2 mm lateral to the midline and −723 μm ventral to the brain surface) and of the 16-fiber optic coupled microelectrode system for photostimulation and field potential recordings (LFP). (b) Representative LFP recordings evoked in the somatosensory cortex with light stimulation of 20 and 200 ms (43 mW/mm^2) in mice injected with DMSO (black line) or Ziapin 2 (gray line). The shaded areas represent light stimulation. (c) Dose-response analysis of LFPs in mice injected with DMSO (black line) or Ziapin 2 (gray line) depending on the power and duration of photostimulation.
The objective was to investigate whether the light-dependent modulation of neuronal activity observed in vitro occurred also in vivo. The electrophysiological recordings were obtained by implanting an array of 16 microelectrodes coupled to an optical fiber for photostimulation. […] The response peaked at around 200 ms following the light stimulus (FIGS. 9c and d).

[5] = system: HEK293 cells; assay: Time-dependent fluorescence photo-switching dynamics in living HEK293 cells; format: cell-based
Description: FIG. 1: (a) scheme of the isomerization process of a compound according to the present invention. Absorption (b) and emission (c) spectra of the compound Ziapin 2 25 μM in DMSO. (d) photoswitching dynamics of Ziapin 2 in water, DMSO and in HEK293 cells. (e, f) absorption and photoluminescence of Ziapin 1 25 μM in DMSO (e) and evolution of the absorption peak at 470 nm by illuminating with a diode at 450 nm (f).
as §1

Structure (SMILES) | trans-cis isomerization reaction in UV-Vis absorption spectra ([1]; 470 nm, FIG. 18) | coverage of the cell surface [2] | fraction of compound located in plasma membranes and in lipid rafts [2] | modulation of passive and active membrane properties following light stimulation ([3]; compared with Ziapin 2) | diameter of the area of diffusion and absorption of the molecule by cortical cells ([4]; 1 μl in the somatosensory cortex, fluorescence analysis) | time of response peak following the light stimulus ([4]; LFP, somatosensory cortex) | LFP changes with respect to DMSO alone ([4]; absence of the light stimulus and highest power used (160 mW/mm^2)) | LFP response compared with DMSO ([4]; higher power densities) | cortical activity evaluated in terms of field potentials (LFP) ([4]; optical stimulation 20 and 200 ms, 472 nm laser, different intensities) | LFP response compared with animals treated with DMSO ([4]; stimulations at 25 and 43 mW/mm^2, 20 ms illumination) | localization at the lipid rafts, Ziapin 2 compared with Ziapin 1 ([2]; primary neuron cultures exposed to compound) | membrane potential response to the light stimulus ([3]; 20 or 200 ms light) | capacity and conductivity of the membrane under light stimulation compared to the values in the dark ([3]; synaptic blockers) | estimated isomerization degree [5] | estimated relaxation degree [5] | strong absorption peak ([1]; in DMSO, E isomer, transition n→Π*) | absorption peak ([1]; in DMSO, E isomer, transition Π→Π*)
O=[N+]([O-])c1ccc(N=Nc2ccc(NCCCCCC[n+]3ccccc3)cc2)cc1 [NO2/1C6Py] | not observed | – | – | – | – | – | – | – | – | – | – | – | – | – | – | – | –
c1cc[n+](CCCCCCNc2ccc(N=Nc3ccc(N4CCCCCC4)cc3)cc2)cc1 [Ziapin 1] | – | about 20% | less than 50% | lower modulation effect | – | – | – | – | – | – | – | – | – | – | – | – | –
c1cc[n+](CCCCCCN(CCCCCC[n+]2ccccc2)c2ccc(N=Nc3ccc(N4CCCCCC4)cc3)cc2)cc1 [Ziapin 2] | – | about 20% | about 70% | – | about 1 mm | around 200 ms | No significant changes | significantly higher | significant activation | significantly different | considerably more marked | hyperpolarization is followed by a depolarization | significant decrease | 0.01 cm^2J^−1 | 0.0085 s⁻¹ | 470 nm | 330 nm

Reference: patent US11401250B2, “Photochromic compounds for use in the treatment of eye disorders” (FONDAZIONE ISTITUTO ITALIANO DI TECNOLOGIA, priority 2018, dated 2022)
